Experimental data taken from article PMC9866460, “Antifungal Combination Eye Drops for Fungal Keratitis Treatment” (Pharmaceutics, 2022).
Values after ≈ are worked out from the molar mass of the structure shown.

Key:
[1] = Particle size of cyclodextrin/drug aggregates by TEM; type: physicochemical
Description: Samples were placed on copper grids and stained with 2% (w/v) phosphotungstic acid. Samples were dried and evaluated by TEM observation using an accelerating voltage of 200 kV.
Particle size was measured using Image-Pro Plus Image Analysis Software Version 6.0.0.260 (Media Cybernetics, Inc., Rockville, MD, USA).

physchem = type: physicochemical
Description: The solubility assay was based on the addition of an excess of the drug to different solutions with increasing concentrations of two different cyclodextrins, 2-hydroxypropyl-β-cyclodextrin (HPβCD) or 2-hydroxypropyl-ɣ-cyclodextrin (HPγCD). […] Afterwards, the resultant solutions were centrifugated (Eppendorf® Centrifuge 5804R) at 12,000 rpm for 30 min and 25 °C. […] Each measurement was performed in triplicate.

- average particle size (TEM) ([1]; saturated solution of natamycin in 40% (w/v) HPβCD): 80.25 ± 35.81 nm
- average particle size (TEM) ([1]; saturated solution of natamycin in 40% (w/v) HPβCD with 1% (w/v) voriconazole): 148.96 ± 32.89 nm
- solubility at 7 days (physchem): 35.3 ± 14 µg/mL (≈ 53 µM)
SMILES: C[C@@H]1C/C=C/C=C/C=C/C=C/[C@H](O[C@@H]2O[C@H](C)[C@@H](O)[C@H](N)[C@@H]2O)C[C@@H]2O[C@](O)(C[C@@H](O)C[C@H]3O[C@@H]3/C=C/C(=O)O1)C[C@H](O)[C@H]2C(=O)O [Natamycin]
